From patent publication US9834558B2, “Substituted bridged urea analogs as sirtuin modulators” (GLAXOSMITHKLINE LLC, priority 2013, dated 2017)

Molecular target: T1, SIRT1 (Homo sapiens, UniProt Q96EB6)
T1 sequence (Q96EB6 1-747): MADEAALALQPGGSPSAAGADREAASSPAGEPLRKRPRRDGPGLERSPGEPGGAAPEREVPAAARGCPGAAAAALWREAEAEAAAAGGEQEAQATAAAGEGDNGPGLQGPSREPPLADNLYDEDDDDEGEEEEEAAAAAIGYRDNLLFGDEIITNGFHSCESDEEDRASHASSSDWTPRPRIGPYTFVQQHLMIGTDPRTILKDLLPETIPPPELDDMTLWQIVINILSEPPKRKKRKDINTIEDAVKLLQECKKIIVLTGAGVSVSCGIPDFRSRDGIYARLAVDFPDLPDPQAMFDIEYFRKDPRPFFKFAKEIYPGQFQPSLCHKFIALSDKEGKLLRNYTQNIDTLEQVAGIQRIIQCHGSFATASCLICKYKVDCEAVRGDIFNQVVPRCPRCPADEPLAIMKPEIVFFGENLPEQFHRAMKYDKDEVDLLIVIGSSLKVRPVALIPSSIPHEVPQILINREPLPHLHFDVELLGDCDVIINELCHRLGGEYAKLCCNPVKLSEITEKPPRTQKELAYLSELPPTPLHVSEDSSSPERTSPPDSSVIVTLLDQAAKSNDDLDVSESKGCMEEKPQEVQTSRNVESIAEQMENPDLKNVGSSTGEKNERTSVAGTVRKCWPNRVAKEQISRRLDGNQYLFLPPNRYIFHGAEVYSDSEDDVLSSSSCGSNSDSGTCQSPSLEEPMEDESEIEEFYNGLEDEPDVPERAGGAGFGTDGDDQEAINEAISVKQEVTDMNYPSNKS
Test: Trp mass spectrometry assay of SIRT1 activation
Format: biochemical
Conditions: Trp peptide assay; for TRP Activity (EC1.5): EC1.5 = concentration that results in 150% activation of SIRT1; for Emax: maximum activity relative to control (100%), read-out: TRP MAX RESP (percent maximum fold activation)
In short: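 N-terminal His-tagged human SIRT1 (10 nM, E. coli BL21(DE3)) with 0.5 μM Ac-RHKK(Ac)W-NH2 peptide and 120 μM βNAD+, 25 min at 25 °C in HEPES pH 7.5, formic acid stop. OAADPR or deacetylated peptide quantified by mass spectrometry; EC1.5 (50% activity increase over control) and Percent Maximum Activation reported.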

| SMILES | TRP Activity (EC1.5) | Emax [%] |
| --- | --- | --- |
| CC(C)n1cc(-c2ccc3c(n2)N(C(=O)Nc2cnccn2)[C@H]2CCN3C2)cn1 [(9S)-5-[1-(propan-2-yl)-1H-pyrazol-4-yl]-N-(pyrazin-2-yl)-1,6,8-triazatricyclo[7.2.1.0 {2,7}]dodeca-2,4,6-triene-8-carboxamide] | A (A (EC1.5<1 μM)) | > 150 |
| Cn1nc(C(F)(F)F)cc1-c1ccc2c(n1)N(C(=O)Nc1cnccn1)[C@H]1CCN2C1 [(9S)-5-[1-methyl-3-(trifluoromethyl)-1H-pyrazol-5-yl]-N-(pyrazin-2-yl)-1,6,8-triazatricyclo[7.2.1.0 {2,7}]dodeca-2(7),3,5-triene-8-carboxamide] | B (B (EC1.5 1-25 μM)) | > 150 |
| O=C(Nc1cnccn1)N1c2nc(-c3ccnc(C(F)F)c3)ccc2N2CC[C@H]1C2 [(9S)-5-[2-(difluoromethyl)pyridin-4-yl]-N-(pyrazin-2-yl)-1,6,8-triazatricyclo[7.2.1.0 {2,7}]dodeca-2(7),3,5-triene-8-carboxamide] | A (A (EC1.5<1 μM)) | > 150 |
| CN(C)c1cc(-c2ccc3c(n2)N(C(=O)Nc2cnccn2)[C@H]2CCN3C2)ccn1 [(9S)-5-[2-(dimethylamino)pyridin-4-yl]-N-(pyrazin-2-yl)-1,6,8-triazatricyclo[7.2.1.0 {2,7}]dodeca-2(7),3,5-triene-8-carboxamide] | B (B (EC1.5 1-25 μM)) | > 150 |
| O=C(Nc1cnccn1)N1c2nc(-c3ccnc(CO)c3)ccc2N2CC[C@H]1C2 [(9S)-5-[2-(hydroxymethyl)pyridin-4-yl]-N-(pyrazin-2-yl)-1,6,8-triazatricyclo[7.2.1.0 {2,7}]dodeca-2(7),3,5-triene-8-carboxamide] | B (B (EC1.5 1-25 μM)) | > 150 |
| CNc1cc(-c2ccc3c(n2)N(C(=O)Nc2cnccn2)[C@H]2CCN3C2)ccn1 [(9S)-5-[2-(methylamino)pyridin-4-yl]-N-(pyrazin-2-yl)-1,6,8-triazatricyclo[7.2.1.0 {2,7}]dodeca-2(7),3,5-triene-8-carboxamide] | B (B (EC1.5 1-25 μM)) | > 150 |
| CC(C)c1cc(-c2ccc3c(n2)N(C(=O)Nc2cnccn2)[C@H]2CCN3C2)ccn1 [(9S)-5-[2-(propan-2-yl)pyridin-4-yl]-N-(pyrazin-2-yl)-1,6,8-triazatricyclo[7.2.1.0 {2,7}]dodeca-2,4,6-triene-8-carboxamide] | A (A (EC1.5<1 μM)) | > 150 |
| Cc1cc(-c2ccc3c(n2)N(C(=O)Nc2cnccn2)[C@H]2CCN3C2)cc(C(F)(F)F)n1 [(9S)-5-[2-methyl-6-(trifluoromethyl)pyridin-4-yl]-N-(pyrazin-2-yl)-1,6,8-triazatricyclo[7.2.1.0 {2,7}]dodeca-2(7),3,5-triene-8-carboxamide] | A (A (EC1.5<1 μM)) | > 150 |
| CN(C)c1cccc(-c2ccc3c(n2)N(C(=O)Nc2cnccn2)[C@H]2CCN3C2)c1 [(9S)-5-[3-(dimethylamino)phenyl]-N-(pyrazin-2-yl)-1,6,8-triazatricyclo[7.2.1.0 {2,7}]dodeca-2(7),3,5-triene-8-carboxamide] | B (B (EC1.5 1-25 μM)) | > 150 |
| O=C(Nc1cnccn1)N1c2nc(-c3ccc(OC(F)F)nc3)ccc2N2CC[C@H]1C2 [(9S)-5-[6-(difluoromethoxy)pyridin-3-yl]-N-(pyrazin-2-yl)-1,6,8-triazatricyclo[7.2.1.0 {2,7}]dodeca-2(7),3,5-triene-8-carboxamide] | B (B (EC1.5 1-25 μM)) | > 150 |
| O=C(Nc1cnccn1)N1c2nc(-c3ccc(CO)nc3)ccc2N2CC[C@H]1C2 [(9S)-5-[6-(hydroxymethyl)pyridin-3-yl]-N-(pyrazin-2-yl)-1,6,8-triazatricyclo[7.2.1.0 {2,7}]dodeca-2(7),3,5-triene-8-carboxamide] | B (B (EC1.5 1-25 μM)) | > 150 |
| O=C(Nc1cnccn1)N1c2nc(-c3cnc(C4CC4)c(C(F)(F)F)c3)ccc2N2CC[C@H]1C2 [(9S)-5-[6-cyclopropyl-5-(trifluoromethyl)pyridin-3-yl]-N-(pyrazin-2-yl)-1,6,8-triazatricyclo[7.2.1.0 {2,7}]dodeca-2,4,6-triene-8-carboxamide] | A (A (EC1.5<1 μM)) | > 150 |
| CC[C@@H]1CN(c2ccc3c(n2)N(C(=O)Nc2cnccn2)[C@H]2CCN3C2)CCO1 [(9S)-5-[(2R)-2-ethylmorpholin-4-yl]-N-(pyrazin-2-yl)-1,6,8-triazatricyclo[7.2.1.0^{2,7}]dodeca-2(7),3,5-triene-8-carboxamide] | B (B (EC1.5 1-25 μM)) | > 150 |
| C[C@@H]1CN(c2ccc3c(n2)N(C(=O)Nc2cnccn2)[C@H]2CCN3C2)CCO1 [(9S)-5-[(2R)-2-methylmorpholin-4-yl]-N-(pyrazin-2-yl)-1,6,8-triazatricyclo[7.2.1.0 {2,7}]dodeca-2,4,6-triene-8-carboxamide] | B (B (EC1.5 1-25 μM)) | > 150 |
| C[C@@H]1CN(c2ccc3c(n2)N(C(=O)Nc2cnccn2)[C@H]2CCN3C2)C[C@H](C)O1 [(9S)-5-[(2R,6S)-2,6-dimethylmorpholin-4-yl]-N-(pyrazin-2-yl)-1,6,8-triazatricyclo[7.2.1.0 {2,7}]dodeca-2(7),3,5-triene-8-carboxamide] | B (B (EC1.5 1-25 μM)) | > 150 |
| C[C@H]1CN(c2ccc3c(n2)N(C(=O)Nc2cnccn2)[C@H]2CCN3C2)CCO1 [(9S)-5-[(2S)-2-methylmorpholin-4-yl]-N-(pyrazin-2-yl)-1,6,8-triazatricyclo[7.2.1.0 {2,7}]dodeca-2,4,6-triene-8-carboxamide] | B (B (EC1.5 1-25 μM)) | > 150 |
| C[C@H]1CNCCN1c1ccc2c(n1)N(C(=O)Nc1cnccn1)[C@H]1CCN2C1 [(9S)-5-[(2S)-2-methylpiperazin-1-yl]-N-(pyrazin-2-yl)-1,6,8-triazatricyclo[7.2.1.0 {2,7}]dodeca-2,4,6-triene-8-carboxamide] | C (C (EC1.5>25 μM)) | < 150 |
| C[C@H]1CN(c2ccc3c(n2)N(C(=O)Nc2cnccn2)[C@H]2CCN3C2)C[C@H](C)O1 [(9S)-5-[(2S,6S)-2,6-dimethylmorpholin-4-yl]-N-(pyrazin-2-yl)-1,6,8-triazatricyclo[7.2.1.0^{2,7}]dodeca-2(7),3,5-triene-8-carboxamide] | B (B (EC1.5 1-25 μM)) | > 150 |
| O=C(c1ccc2c(n1)N(C(=O)Nc1ccccn1)[C@H]1CCN2C1)N1CCC(F)(F)C1 [(9S)-5-[(3,3-difluoropyrrolidin-1-yl)carbonyl]-N-(pyridin-2-yl)-1,6,8-triazatricyclo[7.2.1.0 {2,7}]dodeca-2(7),3,5-triene-8-carboxamide] | B (B (EC1.5 1-25 μM)) | > 150 |
| C[C@@H]1COCCN1c1ccc2c(n1)N(C(=O)Nc1cccnc1)[C@H]1CCN2C1 [(9S)-5-[(3R)-3-methylmorpholin-4-yl]-N-(pyridin-3-yl)-1,6,8-triazatricyclo[7.2.1.0 {2,7}]dodeca-2(7),3,5-triene-8-carboxamide] | B (B (EC1.5 1-25 μM)) | > 150 |
| C[C@@H]1CN(c2ccc3c(n2)N(C(=O)Nc2cnccn2)[C@H]2CCN3C2)CCN1 [(9S)-5-[(3R)-3-methylpiperazin-1-yl]-N-(pyrazin-2-yl)-1,6,8-triazatricyclo[7.2.1.0 {2,7}]dodeca-2,4,6-triene-8-carboxamide] | C (C (EC1.5>25 μM)) | < 150 |
| O=C(Nc1cccnc1)N1c2nc(N3CCOC[C@@H]3CO)ccc2N2CC[C@H]1C2 [(9S)-5-[(3S)-3-(hydroxymethyl)morpholin-4-yl]-N-(pyridin-3-yl)-1,6,8-triazatricyclo[7.2.1.0 {2,7}]dodeca-2(7),3,5-triene-8-carboxamide] | C (C (EC1.5>25 μM)) | < 150 |
| C[C@H]1COCCN1c1ccc2c(n1)N(C(=O)Nc1cccnc1)[C@H]1CCN2C1 [(9S)-5-[(3S)-3-methylmorpholin-4-yl]-N-(pyridin-3-yl)-1,6,8-triazatricyclo[7.2.1.0^2,7]dodeca-2(7),3,5-triene-8-carboxamide] | B (B (EC1.5 1-25 μM)) | > 150 |
| O=C(Nc1ccccc1CCC(F)(F)F)N1c2nc(Cl)ccc2N2CC[C@H]1C2 [(9S)-5-chloro-N-[2-(3,3,3-trifluoropropyl)phenyl]-1,6,8-triazatricyclo[7.2.1.0 {2,7}]dodeca-2(7),3,5-triene-8-carboxamide] | B (B (EC1.5 1-25 μM)) | > 150 |
